# Experiments:
# Verticillium dahliae = test: Antifungal activity against Verticillium dahliae assessed as spore germination rate at 100 ppm relative to untreated control; type: functional
# [1] = test system: Fusarium oxysporum f. sp. melongenae; test: Antifungal activity against Fusarium oxysporum f. sp. melongenae assessed as spore germination rate at 100 ppm relative to untreated control; type: functional
SMILES,Activity (Verticillium dahliae),Activity [1]
C=C(C)[C@@H]1CC[C@]2(C1)[C@H](C)C[C@H](O)C[C@H]2O [15-NOREPILUBIMINOL],57%,113%
C=C(C)[C@@H]1CC[C@]2(C1)[C@H](C)C[C@H](O)C[C@@H]2C=O [LUBIMIN],42%,5%
C=C(C)[C@@H]1CC[C@]2(C1)[C@H](C)C[C@H](O)C[C@H]2C=O [EPILUBIMIN],54%,30%
C=C(C)[C@@H]1CC[C@]2(C1)[C@H](C)C[C@H](O)C[C@@H]2O [15-NORLIBIMINOL],52%,114%

# — ChEMBL document CHEMBL3044993, “Structural confirmation of 15-norlubiminol and 15-norepilubiminol, isolated from Solanum aethiopicum, by chemical conversion from lubimin and epilubimin, and their antifungal activity” (2001)
